Experimental data from patent US10827758B2, “Relating to water treatment” (BWA WATER ADDITIVES UK LIMITED, priority 2014, dated 2020).

Assays:
[1] = tested on: Desulfovibrio vulgaris; assay: Log 10 Reduction of anaerobic bacterium in dosed bacterial suspension (serial dilution into API RP 38 media vials); type: cell-based; details: TDS 30,000 mg l^-1, ppm dose per Example, 6 = complete kill
Description: (§1) A suspension of Desulfovibrio vulgaris plus Enterobacter aerogenes bacteria containing from 1×10^6 to 1×10^8 cells/mL was prepared in sterile pH 8 phosphate buffer containing varying levels of sodium chloride to give the desired total dissolved solids (TDS) concentration. Aliquots of this suspension were dosed with the indicated concentrations of the phosphonium compound (a) and stabilised halogen containing composition (b) with the concentrations being measured as ppm by weight of the stated composition in the dosed suspension. The mixtures were allowed to stand at room temperature. At the designated contact times, each mixture was sampled to determine the total number of viable cells of both Desulfovibrio vulgaris and Enterobacter aerogenes by serial 10-fold dilution into API RP 38 media vials and anaerobic acid producing media vials, respectively. The vials were incubated at 37° C. for 72 hours. Results were recorded as cells per millilitre.
(§2) Aqueous media inoculated with anaerobe and aerobe culture and having a TDS of 30,000 mg l^−1 was treated with treatment agents comprising: (i) stabilised halogen containing composition; (ii) tri n-butyl n-tetradecyl phosphonium chloride (TTPC) or (iii) a combination of stabilised halogen containing composition and TTPC.
(§3) The efficacy of the treatment agents was evaluated by measuring the Log 10 Reduction of the anaerobic bacterium Desulfovibrio vulgaris and the facultative anaerobeic bacterium Enterobacter aerogenes after contact times of 1 hour, 4 hours and 24 hours as detailed in Table 1. For TTPC the stated ppm value relates to the amount of TTPC added (active). For the stabilised bromine composition the stated ppm relates to the amount of Bromax 7.1 added (product)
(§4) A Log 10 reduction of 6 represents a complete kill for anaerobes and a Log 10 reduction of 8 represents a complete kill for facultative anaerobes.

[2] = tested on: Enterobacter aerogenes; assay: Log 10 Reduction of facultative anaerobic bacterium in dosed bacterial suspension (serial dilution into anaerobic acid producing media vials); type: cell-based; details: TDS 30,000 mg l^-1, ppm dose per Example, 8 = complete kill
Description: as §1, §2, §3, §4

SMILES | Log10 Reduction Anaerobes ([1]; contact time 1 hour) | Log10 Reduction Facultative Anaerobes ([2]; contact time 1 hour) | Log10 Reduction Anaerobes ([1]; contact time 24 hours) | Log10 Reduction Facultative Anaerobes ([2]; contact time 24 hours) | further results
CCCCCCCCCCCCCC[P+](CCCC)(CCCC)CCCC.[Cl-] [Example 1, tri n-butyl n-tetradecyl phosphonium chloride] | 3 | 1 |  |  | 
CCCCCCCCCCCCCC[P+](CCCC)(CCCC)CCCC.[Cl-] [Example 2, tri n-butyl n-tetradecyl phosphonium chloride] | 6 | 4 |  |  | 
CCCCCCCCCCCCCC[P+](CCCC)(CCCC)CCCC.[Cl-] [Example 9, tri n-butyl n-tetradecyl phosphonium chloride] |  |  |  |  | Log10 Reduction Anaerobes ([1]; contact time 4 hours): 6; Log10 Reduction Facultative Anaerobes ([2]; contact time 4 hours): 5
CCCCCCCCCCCCCC[P+](CCCC)(CCCC)CCCC.[Cl-] [Example 17, tri n-butyl n-tetradecyl phosphonium chloride] |  |  | 6 | 5 | 
CCCCCCCCCCCCCC[P+](CCCC)(CCCC)CCCC.[Cl-] [Example 18, tri n-butyl n-tetradecyl phosphonium chloride] |  |  | 6 | 8 | 
